Results published in patent US10364222B2, “Cyclic amine derivative and medical use thereof” (Toray Industries, Inc., priority 2016, dated 2019).

The molecules below were run against T1, ligand-binding domain of RORγ (RORγ-LBD) (Homo sapiens, UniProt P51449) (assay: Inhibitory effect on RORγ-coactivator binding (LanthaScreen TR-FRET RORγ Coactivator Assay)). Settings: at 33 μmol/L of the test compound; read-out: RORγ-coactivator binding inhibition rate (%).
T1 construct: purchased Invitrogen
T1 sequence (P51449 269-508 limits assumed): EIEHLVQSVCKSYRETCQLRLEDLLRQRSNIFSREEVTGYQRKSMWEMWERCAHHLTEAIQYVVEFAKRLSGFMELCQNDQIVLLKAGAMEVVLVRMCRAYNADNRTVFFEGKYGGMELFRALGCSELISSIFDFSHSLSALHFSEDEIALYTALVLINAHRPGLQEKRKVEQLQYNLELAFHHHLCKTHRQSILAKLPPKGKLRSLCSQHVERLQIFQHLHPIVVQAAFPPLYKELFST
Description: The inhibitory effect of the cyclic amine derivative (I) or a pharmacologically acceptable salt thereof on the binding between a ligand-binding domain of RORγ (hereinafter referred to as RORγ-LBD) and a coactivator was evaluated using Invitrogen's LanthaScreen™TR-FRET Retinoid-Related Orphan Receptor (ROR) gamma Coactivator Assay kit utilizing time-resolved fluorescence energy transfer (TR-FRET).
The test compound was dissolved in DMSO and diluted with TR-FRET Coregulator Buffer D (Invitrogen) containing 5 mmol/L of DTT to have a final DMSO concentration of 1% before use. To each well of a 384-well black plate (Corning Inc.), 4 nmol/L of GST-fused RORγ-LBD (Invitrogen) diluted with the buffer mentioned above and the test compound were added. A well without addition of the test compound and without addition of GST-fused RORγ-LBD (background) and a well without addition of the test compound and with addition of GST-fused RORγ-LBD (control) were prepared. Next, 150 nmol/L of fluorescein-labeled TRAP220/DRIP-2 (Invitrogen) diluted with the buffer mentioned above and 32 nmol/L of terbium-labeled anti-GST antibody (Invitrogen) were added to each well. After incubating the plate at room temperature for 16 to 24 hours, the fluorescence at 495 nm and 520 nm when excited at 320 nm was measured for each well and the ratio (fluorescence value at 520 nm/fluorescence value at 495 nm) was calculated.
The fold change with addition of the test compound (ratio with addition of the test compound/ratio of the background), the fold change of the control (ratio of the control/ratio of the background), and the fold change of the background (ratio of the background/ratio of the background) were calculated, and then the inhibition rate of binding between RORγ-LBD and a coactivator (hereinafter referred to as RORγ-coactivator binding inhibition rate) (%) was calculated from Formula 1: RORγ-coactivator binding inhibition rate(%)=(1−((Fold change with addition of the test compound)−(Fold change of the background))/((Fold change of the control)−(Fold change of the background)))×100 Formula 1
`CC(=O)N1CCCCC1C(=O)Nc1ccc(-c2ccccc2OC(F)(F)F)c(Cl)c1` (stereo not shown) [Example 1, 1-acetyl-N-(2-chloro-2′-(trifluoromethoxy)-[1,1′-biphenyl]-4-yl)piperidine-2-carboxamide] gave an inhibition at 33 µM of 90.9%.
Molecule `O=C(Nc1ccc(-c2ccccc2OC(F)(F)F)c(Cl)c1)C1CCCCN1C(=O)C(F)(F)F` (stereo not shown) [Example 2, N-(2-chloro-2′-(trifluoromethoxy)-[1,1′-biphenyl]-4-yl)-1-(2,2,2-trifluoroacetyl)piperidine-2-carboxamide] has an inhibition at 33 µM of 91.9%.
With `CCC(=O)N1CCCCC1C(=O)Nc1ccc(-c2ccccc2OC(F)(F)F)c(Cl)c1` (stereo not shown) [Example 3, N-(2-chloro-2′-(trifluoromethoxy)-[1,1′-biphenyl]-4-yl)-1-propionylpiperidine-2-carboxamide] the inhibition at 33 µM was 88.2%.

The molecules below were run on IL-17 production in mouse splenocytes (assay: Suppressive effect on IL-17 production by IL-23 stimulation in mouse splenocytes). Settings: Splenocyte, 72 h, at 5 μmol/L of the test compound, 10 ng/mL human IL-23, 3 days, read-out: IL-17 production inhibition rate (%).
Type: cell-based
Description: Using mouse splenocytes, the suppressive effect of the cyclic amine derivative (I) or a pharmacologically acceptable salt thereof on IL-17 production by IL-23 stimulation was evaluated by a partially modified method mentioned in The Journal of Biological Chemistry, 2003, Vol. 278, No. 3, p. 1910-1914.
A single cell suspension was prepared from the spleen of C57BL/6J mice (male, 7 to 23 weeks old) (Charles River Laboratories Japan, Inc.) and splenocytes were prepared using Histopaque-1083 (Sigma-Aldrich Japan). The culture medium was used by adding 10% FBS (Gibco), 50 U/mL of penicillin 50 μg/mL of streptomycin (Gibco), 50 μmol/L of 2-mercaptoethanol (Gibco), and 100 U/mL of human IL-2 (Cell Science & Technology Institute, Inc.) to RPMI1640 medium (Gibco). The test compound was dissolved in DMSO and then diluted with the culture medium to have a final concentration of DMSO of 0.1% before use. Splenocytes (3×10^5 cells/well) prepared in the culture medium were seeded in wells of a 96-well flat-bottom plate (Corning Incorporated), the test compound and 10 ng/mL of human IL-23 (R & D systems, Inc.) were added thereto, and the cells were cultured at 37° C. under 5% CO2 for 3 days. A well without addition of human IL-23 and without addition of the test compound and a well with addition of human IL-23 and without addition of the test compound were prepared. After completion of the culture, the culture supernatant was collected and the IL-17 production amount in the supernatant was determined by ELISA method (R & D systems, Inc.).
The IL-17 production inhibition rate (%) was calculated from Formula 2. IL-17 production inhibition rate(%)=(1−((IL-17 production amount with addition of IL-23 and with addition of the test compound)−(IL-17 production amount without addition of IL-23 and without addition of the test compound))/((IL-17 production amount with addition of IL-23 and without addition of the test compound)−(IL-17 production amount without addition of IL-23 and without addition of the test compound)))×100 Formula 2
`CC(=O)N1CCCCC1C(=O)Nc1ccc(-c2ccccc2OC(F)(F)F)c(Cl)c1` (stereo not shown) [Example 1, 1-acetyl-N-(2-chloro-2′-(trifluoromethoxy)-[1,1′-biphenyl]-4-yl)piperidine-2-carboxamide] was tested, and the inhibition at 5 µM was 94%.
In the case of `O=C(Nc1ccc(-c2ccccc2OC(F)(F)F)c(Cl)c1)C1CCCCN1C(=O)C(F)(F)F` (stereo not shown) [Example 2, N-(2-chloro-2′-(trifluoromethoxy)-[1,1′-biphenyl]-4-yl)-1-(2,2,2-trifluoroacetyl)piperidine-2-carboxamide], the inhibition at 5 µM is reported as 96.2%.
`CCC(=O)N1CCCCC1C(=O)Nc1ccc(-c2ccccc2OC(F)(F)F)c(Cl)c1` (stereo not shown) [Example 3, N-(2-chloro-2′-(trifluoromethoxy)-[1,1′-biphenyl]-4-yl)-1-propionylpiperidine-2-carboxamide] gave an inhibition at 5 µM of 98.6%.
Work on `CN(C)CC(=O)N1CCCCC1C(=O)Nc1ccc(-c2ccccc2OC(F)(F)F)c(Cl)c1` (stereo not shown) [Example 6, N-(2-chloro-2′-(trifluoromethoxy)-[1,1′-biphenyl]-4-yl)-1-(2-(dimethylamino)acetyl)piperidine-2-carboxamide] yielded an inhibition at 5 µM of 91.6%.
`O=C(Nc1ccc(-c2ccccc2OC(F)(F)F)c(Cl)c1)C1CCCCN1C(=O)C(F)F` (stereo not shown) [Example 7, N-(2-chloro-2′-(trifluoromethoxy)-[1,1′-biphenyl]-4-yl)-1-(2,2-difluoroacetyl)piperidine-2-carboxamide] showed an inhibition at 5 µM of 99%.
`CC(=O)NCC(=O)N1CCCCC1C(=O)Nc1ccc(-c2ccccc2OC(F)(F)F)c(Cl)c1` (stereo not shown) [Example 9, 1-(2-acetamideacetyl)-N-(2-chloro-2′-(trifluoromethoxy)-[1,1′-biphenyl]-4-yl)piperidine-2-carboxamide] was tested, and the inhibition at 5 µM was 94.6%.
For `CNCC(=O)N1CCCCC1C(=O)Nc1ccc(-c2ccccc2OC(F)(F)F)c(Cl)c1` (stereo not shown) [Example 11, N-(2-chloro-2′-(trifluoromethoxy)-[1,1′-biphenyl]-4-yl)-1-(2-(methylamino)acetyl)piperidine-2-carboxamide], the inhibition at 5 µM was 94.1%.
`CC(=O)N(C)CC(=O)N1CCCCC1C(=O)Nc1ccc(-c2ccccc2OC(F)(F)F)c(Cl)c1` (stereo not shown) [Example 12, N-(2-chloro-2′-(trifluoromethoxy)-[1,1′-biphenyl]-4-yl)-1-(2-(N-methylacetamide)acetyl)piperidine-2-carboxamide] was tested, and the inhibition at 5 µM was 96.1%.
`CC(=O)N1CC[C@H](O)C[C@@H]1C(=O)Nc1ccc(-c2ccccc2OC(F)(F)F)c(Cl)c1` [Example 24, (2R,4S)-1-acetyl-N-(2-chloro-2′-(trifluoromethoxy)-[1,1′-biphenyl]-4-yl)-4-hydroxypiperidine-2-carboxamide] was tested, and the inhibition at 5 µM was 95.7%.
`CS(=O)(=O)N1CC[C@H](O)C[C@@H]1C(=O)Nc1ccc(-c2ccccc2OC(F)(F)F)c(Cl)c1` [Example 26, (2R,4S)—N-(2-chloro-2′-(trifluoromethoxy)-[1,1′-biphenyl]-4-yl)-4-hydroxy-1-(methylsulfonyl)piperidine-2-carboxamide] was tested, and the inhibition at 5 µM was 96.4%.
`CC(=O)N1CC[C@@H](O)C[C@@H]1C(=O)Nc1ccc(-c2ccccc2OC(F)(F)F)c(Cl)c1` [Example 27, (2R,4R)-1-acetyl-N-(2-chloro-2′-(trifluoromethoxy)-[1,1′-biphenyl]-4-yl)-4-hydroxypiperidine-2-carboxamide] was tested, and the inhibition at 5 µM was 97.4%.
`NCCC(=O)N1CCCCC1C(=O)Nc1ccc(-c2ccccc2OC(F)(F)F)c(Cl)c1` (stereo not shown) [Example 30, 1-(3-aminopropanoyl)-N-(2-chloro-2′-(trifluoromethoxy)-[1,1′-biphenyl]-4-yl)piperidine-2-carboxamide] was tested, and the inhibition at 5 µM was 99.8%.
In the case of `CC(=O)NCCC(=O)N1CCCCC1C(=O)Nc1ccc(-c2ccccc2OC(F)(F)F)c(Cl)c1` (stereo not shown) [Example 31, 1-(3-acetamidepropanoyl)-N-(2-chloro-2′-(trifluoromethoxy)-[1,1′-biphenyl]-4-yl)piperidine-2-carboxamide], the inhibition at 5 µM is reported as 99.1%.
With `CN(C)CCC(=O)N1CCCCC1C(=O)Nc1ccc(-c2ccccc2OC(F)(F)F)c(Cl)c1` (stereo not shown) [Example 33, N-(2-chloro-2′-(trifluoromethoxy)-[1,1′-biphenyl]-4-yl)-1-(3-(dimethylamino)propanoyl)piperidine-2-carboxamide] the inhibition at 5 µM was 98.3%.
For `CNCCC(=O)N1CCCCC1C(=O)Nc1ccc(-c2ccccc2OC(F)(F)F)c(Cl)c1` (stereo not shown) [Example 34, N-(2-chloro-2′-(trifluoromethoxy)-[1,1′-biphenyl]-4-yl)-1-(3-(methylamino)propanoyl)piperidine-2-carboxamide], the inhibition at 5 µM was 100%.
`CC(=O)N(C)CCC(=O)N1CCCCC1C(=O)Nc1ccc(-c2ccccc2OC(F)(F)F)c(Cl)c1` (stereo not shown) [Example 35, N-(2-chloro-2′-(trifluoromethoxy)-[1,1′-biphenyl]-4-yl)-1-(3-(N-methylacetamide)propanoyl)piperidine-2-carboxamide] showed an inhibition at 5 µM of 94.9%.
`NCCC(=O)N1CCCC[C@@H]1C(=O)Nc1ccc(-c2ccccc2OC(F)(F)F)c(Cl)c1` [Example 38, (R)-1-(3-aminopropanoyl)-N-(2-chloro-2′-(trifluoromethoxy)-[1,1′-biphenyl]-4-yl)piperidine-2-carboxamide] showed an inhibition at 5 µM of 99%.
`CNCCC(=O)N1CCCC[C@@H]1C(=O)Nc1ccc(-c2ccccc2OC(F)(F)F)c(Cl)c1` [Example 41, (R)-N-(2-chloro-2′-(trifluoromethoxy)-[1,1′-biphenyl]-4-yl)-1-(3-(methylamino)propanoyl)piperidine-2-carboxamide] showed an inhibition at 5 µM of 99.1%.
With `O=C(Nc1ccc(-c2ccccc2OC(F)(F)F)c(Cl)c1)[C@H]1CCCCN1C(=O)Cn1cnnc1` [Example 62, (R)-1-(2-(4H-1,2,4-triazol-4-yl)acetyl)-N-(2-chloro-2′-(trifluoromethoxy)-[1,1′-biphenyl]-4-yl)piperidine-2-carboxamide] the inhibition at 5 µM was 100%.
`O=C(Nc1ccc(-c2ccccc2OC(F)(F)F)c(Cl)c1)[C@H]1CCCCN1C(=O)Cn1cncn1` [Example 63, (R)-1-(2-(1H-1,2,4-triazol-1-yl)acetyl)-N-(2-chloro-2′-(trifluoromethoxy)-[1,1′-biphenyl]-4-yl)piperidine-2-carboxamide] was tested, and the inhibition at 5 µM was 99.9%.
Work on `CN(C)CCC(=O)N1CCCC[C@@H]1C(=O)Nc1ccc(-c2ccccc2OC(F)(F)F)c(Cl)c1` [Example 68, (R)-N-(2-chloro-2′-(trifluoromethoxy)-[1,1′-biphenyl]-4-yl)-1-(3-(dimethylamino)propanoyl)piperidine-2-carboxamide] yielded an inhibition at 5 µM of 99.4%.
For `O=C(O)CCCC(=O)N1CCCC[C@@H]1C(=O)Nc1ccc(-c2ccccc2OC(F)(F)F)c(Cl)c1` [Example 70, (R)-5-(2-((2-chloro-2′-(trifluoromethoxy)-[1,1′-biphenyl]-4-yl)carbamoyl)piperidin-1-yl)-5-oxopentanoic acid], the inhibition at 5 µM was 99.7%.
